# Measurements published in ChEMBL document CHEMBL5113436, “WCK 4034: A promising oxazolidinone for treating gram positive infections” (Bioorg Med Chem Lett, 2022).
# Key:
# Streptococcus pneumoniae = experiment: Antibacterial activity against Streptococcus pneumoniae ATCC 49619 incubated for 18 hrs by CLSI protocol based two-fold serial agar dilution method; assay type: functional
# Haemophilus influenzae = experiment: Antibacterial activity against Haemophilus influenzae […] ATCC 35054 incubated for 18 hrs by CLSI protocol based two-fold serial agar dilution method; assay type: functional
# Staphylococcus aureus [1] = experiment: Antibacterial activity against methicillin-resistant Staphylococcus aureus Sta-032 incubated for 18 hrs by CLSI protocol based two-fold serial agar dilution method; assay type: functional
# Staphylococcus aureus [2] = experiment: Antibacterial activity against Staphylococcus aureus Sta-5027 infected in Swiss mouse model of septicemia administered by oral route 1 h and 5 h post-infection; assay type: functional; conditions: Sta-5027, 168 h, time 7 day
# Staphylococcus aureus [3] = experiment: Antibacterial activity against methicillin-sensitive Staphylococcus aureus Sta-001 incubated for 18 hrs by CLSI protocol based two-fold serial agar dilution method; assay type: functional
# Staphylococcus aureus [4] = experiment: Antibacterial activity against Linezolid-resistant Staphylococcus aureus Sta-5060 incubated for 18 hrs by CLSI protocol based two-fold serial agar dilution method; assay type: functional
# Staphylococcus aureus [5] = experiment: Antibacterial activity against Linezolid-resistant Staphylococcus aureus Sta-5059 incubated for 18 hrs by CLSI protocol based two-fold serial agar dilution method; assay type: functional
# [6] = Terminal half life in Beagle dog at 15 mg/kg, iv; assay type: ADME, organism-based, Canis lupus familiaris; conditions: in vivo
# [7] = Cmax in Wistar rat at 15 mg/kg, iv; assay type: ADME, organism-based; design: dose 15 mg/kg, route iv; conditions: in vivo
# [8] = Volume of distribution in Wistar rat at 15 mg/kg, iv; assay type: ADME, organism-based; conditions: in vivo
# [9] = Cmax in Wistar rat at 30 mg/kg, iv; assay type: ADME, organism-based; design: dose 30 mg/kg, route iv; conditions: in vivo
# [10] = Volume of distribution in Wistar rat at 30 mg/kg, iv; assay type: ADME, organism-based; conditions: in vivo
# [11] = Clearance in Wistar rat at 15 mg/kg, iv; assay type: ADME, organism-based; conditions: in vivo
# [12] = AUC in Beagle dog at 15 mg/kg, iv; conditions: in vivo
# [13] = Clearance in Wistar rat at 30 mg/kg, iv; assay type: ADME, organism-based; conditions: in vivo
# [14] = Clearance in Beagle dog at 15 mg/kg, iv; assay type: ADME, organism-based, Canis lupus familiaris; conditions: in vivo
# [15] = Cmax in Beagle dog at 15 mg/kg, iv; assay type: ADME, organism-based, Canis lupus familiaris; design: dose 15 mg/kg, route iv; conditions: in vivo
# [16] = AUC in Beagle dog at 15 mg/kg, iv; assay type: ADME, organism-based, Canis lupus familiaris; design: dose 15 mg/kg, route iv; conditions: in vivo
# [17] = AUC in Wistar rat at 15 mg/kg, iv; assay type: ADME, organism-based; design: dose 15 mg/kg, route iv; conditions: in vivo
# [18] = Terminal half life in Wistar rat at 30 mg/kg, iv; assay type: ADME, organism-based; conditions: in vivo
Structure (SMILES),MIC (Streptococcus pneumoniae) [µg/mL],MIC (Haemophilus influenzae) [µg/mL],MIC (Staphylococcus aureus [1]) [µg/mL],ED50 (Staphylococcus aureus [2]) [mg/kg],MIC (Staphylococcus aureus [3]) [µg/mL],also measured
CC(=O)NC[C@H]1CN(c2ccc(N3CCC4(CC3)OCC[S+]4[O-])c(F)c2)C(=O)O1 (some centres undefined),2,8,4,10,4,–
CC(=O)NC[C@H]1CN(c2ccc(N3CCC4(CC3)COCO4)c(F)c2)C(=O)O1,2,> 16,4,5,4,–
CC(=O)NC[C@H]1CN(c2ccc(N3CCC4(OCCO4)C(F)C3)c(F)c2)C(=O)O1 (some centres undefined),2,–,4,5,12.5,–
CC(=O)NC[C@H]1CN(c2ccc(N3CCC4(CC3)OCCO4)c(F)c2)C(=O)O1,4,16,4,5,4,–
CC(=O)NC[C@H]1CN(c2ccc(N3CCCC4(C3)OCCO4)c(F)c2)C(=O)O1,4,16,4,5,4,–
CC(=O)NC[C@H]1CN(c2ccc(N3CCC4(CC3)OCCS4)c(F)c2)C(=O)O1,4,> 16,4,10,4,–
CC(=O)NC[C@H]1CN(c2ccc(N3CCC4(CC3)OCCS4(=O)=O)c(F)c2)C(=O)O1,2,16,> 32,–,> 32,–
CC(=O)NC[C@H]1CN(c2ccc(N3CCC4(CC3)COCCO4)c(F)c2)C(=O)O1,2,> 16,4,> 10,4,–
CC(=O)NC[C@H]1CN(c2ccc(N3CCC4(OCCO4)C(C)(C)C3)c(F)c2)C(=O)O1,4,2,12.5,–,–,–
CS(=O)(=O)NC[C@H]1CN(c2ccc(N3CCC4(OCCO4)C(F)C3)c(F)c2)C(=O)O1 (some centres undefined),> 8,> 16,32,> 30,> 32,–
CC(=O)NC[C@H]1CN(c2ccc(N3CCC4(CC3)SCCS4)c(F)c2)C(=O)O1,2,> 16,4,> 20,8,–
CC(=O)NC[C@H]1CN(c2cc(F)c(N3CCC4(OCCO4)[C@H](F)C3)c(F)c2)C(=O)O1,2,16,8,2.5,8,MIC (Staphylococcus aureus [4]): > 8 µg/mL; MIC (Staphylococcus aureus [5]): > 8 µg/mL
O=C1O[C@@H](Cn2ccnn2)CN1c1cc(F)c(N2CCC3(OCCO3)C(F)C2)c(F)c1 (some centres undefined),2,> 16,4,–,8,–
CC(=O)NC[C@H]1CN(c2ccc(N3CCOCC3)c(F)c2)C(=O)O1 [LINEZOLID],–,4,–,2.5,–,"beta t1/2 [6]: 1.3 h; Cmax [7]: 8700 ng/mL; Vd [8]: 0.4 L/kg; MIC (Staphylococcus aureus [4]): > 8 µg/mL; Cmax [9]: 27300 ng/mL; Vd ([10]; iv, 30 mg/kg): 17.82 L/kg; CL [11]: 34 mL/min/kg; AUC [12]: 78.2 µg·h/mL; CL ([13]; iv, 30 mg/kg): 9.33 mL/min/kg; CL [14]: 3.17 mL/min/kg; Cmax [15]: 1620 ng/mL; AUC [16]: 19.9 µg·h/kg; MIC (Staphylococcus aureus [5]): > 8 µg/mL; AUC [17]: 1.24 µg·h/kg; beta t1/2 ([18]; iv, 30 mg/kg): 2.23 h"
CC(=O)NC[C@H]1CN(c2cc(F)c(N3CCC4(OCCO4)[C@@H](F)C3)c(F)c2)C(=O)O1,1,> 16,2,2.5,2,"beta t1/2 [6]: 4.01 h; Cmax [7]: 2370 ng/mL; Vd [8]: 0.4 L/kg; MIC (Staphylococcus aureus [4]): > 8 µg/mL; Cmax [9]: 10800 ng/mL; Vd ([10]; Wistar, read-out: Vd): 9.66 L/kg; CL [11]: 220.3 mL/min/kg; AUC [12]: 135 µg·h/mL; clearance ([13]; Wistar): 30.3 mL/min/kg; CL [14]: 1.7 mL/min/kg; Cmax [15]: 7100 ng/mL; AUC [16]: 6.9 µg·h/kg; MIC (Staphylococcus aureus [5]): > 8 µg/mL; AUC [17]: 7.32 µg·h/kg; half-life ([18]; Wistar, read-out: beta t1/2 (converted)): 7.1 h"
CC(=O)NC[C@H]1CN(c2ccc(N3CCC4(CCO4)CC3)c(F)c2)C(=O)O1,4,> 16,6.25,20,16,–
CS(=O)(=O)OC[C@H]1CN(c2ccc(N3CCC4(OCCO4)C(F)C3)c(F)c2)C(=O)O1 (some centres undefined),4,–,6.25,> 10,12.5,–
CC(=O)NC[C@H]1CN(c2cc(F)c(N3CCC4(OCCO4)C(F)C3)c(F)c2)C(=O)O1 (some centres undefined),> 4,16,2,< 5,2,MIC (Staphylococcus aureus [4]): > 8 µg/mL; MIC (Staphylococcus aureus [5]): > 8 µg/mL
CC(=O)NC[C@H]1CN(c2ccc(N3CCC4(CC3)OCC(C)(C)O4)c(F)c2)C(=O)O1,–,–,8,> 20,–,–
CC(=O)NC[C@H]1CN(c2ccc(N3CCC4(CC3)OCC(C)(C)CO4)c(F)c2)C(=O)O1,8,> 16,16,–,16,–
CC(=O)NC[C@H]1CN(c2ccc(N3CCC4(CC3)COCCCO4)c(F)c2)C(=O)O1,4,> 16,4,10,8,–
CC(=O)NC[C@H]1CN(c2ccc(N3CCC4(OCCO4)C(C)C3)c(F)c2)C(=O)O1 (some centres undefined),8,> 16,32,–,32,–
CC(=O)NC[C@H]1CN(c2ccc(N3CCC4(OCCO4)C(F)C3)cc2)C(=O)O1 (some centres undefined),4,> 16,8,5,16,–
O=C1O[C@@H](Cn2ccnn2)CN1c1ccc(N2CCC3(OCCO3)C(F)C2)c(F)c1 (some centres undefined),4,> 16,3.12,–,16,–
CC(=O)NC[C@H]1CN(c2ccc(N3CCC4(CC3)OCC(C)O4)c(F)c2)C(=O)O1 (some centres undefined),–,–,8,> 20,–,–
CC(=O)NC[C@H]1CN(c2ccc(N3CCC4(CC3)OCCCCO4)c(F)c2)C(=O)O1,4,> 16,16,–,16,–
CC(=O)NC[C@H]1CN(c2ccc(N3CCC4(CC3)NCCO4)c(F)c2)C(=O)O1,2,8,2,20,2,–
CC(=O)NC[C@H]1CN(c2ccc(N3CCC4(CC3)NCCS4)c(F)c2)C(=O)O1,2,8,4,5,4,–
CC(=O)NC[C@H]1CN(c2ccc(N3CCC4(CC3)CO4)c(F)c2)C(=O)O1,4,16,4,–,4,–
